Test results published in ChEMBL document CHEMBL1132128, “Novel halogenated sulfonamides inhibit the growth of multidrug resistant MCF-7/ADR cancer cells” (1999).

Key:
Format in all cases: functional
MCF7 = experiment: Cytotoxic activity against human breast tumor-derived MCF-7 cell lines
NCI/ADR-RES = experiment: Cytotoxic activity against MCF-7/ADR cell lines; conditions: Homo sapiens
HeLa = experiment: Cytotoxic activity against human cervical adenocarcinoma-derived HeLa cell lines

| Structure (SMILES) | GI50 (MCF7) | GI50 (NCI/ADR-RES) | GI50 (HeLa) |
| --- | --- | --- | --- |
| COc1ccc(NS(=O)(=O)c2c(F)c(F)cc(F)c2F)cc1 | > 50000 nM | > 50000 nM | > 50000 nM |
| COc1ccc(NS(=O)(=O)c2ccc(F)c(F)c2F)cc1 | > 50000 nM | > 50000 nM | > 50000 nM |
| COc1ccc(NS(=O)(=O)c2c(F)c(F)c(Br)c(F)c2F)cc1 | 36000 nM | 21000 nM | 17000 nM |
| COc1ccc(NS(=O)(=O)c2c(F)c(F)c(F)c(Br)c2F)cc1 | 270 nM | 190 nM | 220 nM |
| COc1ccc(NS(=O)(=O)c2c(F)cc(F)cc2F)cc1 | > 50000 nM | > 50000 nM | > 50000 nM |
| COc1ccc(NS(=O)(=O)c2cc(F)c(F)c(F)c2F)cc1 | 120 nM | 400 nM | 370 nM |
| COc1ccc(NS(=O)(=O)c2c(F)cc(F)c(F)c2F)cc1 | 4500 nM | 4500 nM | 5800 nM |
| COc1ccc(NS(=O)(=O)c2cc(F)c(F)c(F)c2)cc1 | 2000 nM | 3400 nM | 3900 nM |
| COc1ccc(NS(=O)(=O)c2c(F)c(F)c(F)c(F)c2Br)cc1 | 39 nM | 160 nM | 160 nM |
| COc1ccc(NS(=O)(=O)c2cc(F)c(Cl)c(F)c2F)cc1 | 44000 nM | 22000 nM | 21000 nM |
| COc1ccc(NS(=O)(=O)c2c(F)c(F)c(F)c(F)c2F)cc1 | 29 nM | 58 nM | 99 nM |
| COc1ccc(NS(=O)(=O)c2c(F)c(Cl)c(F)c(Cl)c2F)cc1 | 37 nM | 58 nM | 96 nM |
| CC(=O)O[C@H]1C(=O)[C@@]2(C)[C@H]([C@H](OC(=O)c3ccccc3)[C@]3(O)C[C@H](OC(=O)[C@H](O)[C@@H](NC(=O)c4ccccc4)c4ccccc4)C(C)=C1C3(C)C)[C@]1(OC(C)=O)CO[C@@H]1C[C@@H]2O [PACLITAXEL] | 1.1 nM | > 50000 nM | 7 nM |
